Reference: US11974985B2, “Composition of aminopyran derivative” (HAISCO PHARMACEUTICAL GROUP CO., LTD., priority 2018, dated 2024)

Test: Compatibility test of compound of formula (I) with lactose, change of impurities
Format: physicochemical
Details: room temperature
Method: A compatibility test was carried out with lactose (a reducing sugar) and the compound of formula (I) at room temperature in which, after both were mixed in a certain ratio, the changes of impurity in the compound of formula (I) were tested.

For `CS(=O)(=O)n1cc2c(n1)CN([C@@H]1C[C@H](N)[C@@H](c3cc(F)ccc3F)O[C@@H]1C(F)(F)F)C2` [Compound of formula (I)], the “Main peak area (%)” value was 99.247%, the Number of impurities was 5 and the “Total impurities (%)” value was 0.753%.
